Test results reported in paper PMC11503540, “Development of a pharmacological evidence‐based anticholinergic burden scale for medications commonly used in older adults” (Geriatrics & Gerontology International, 2023).

target: T1, muscarinic receptor (rat brain); assay: [3H]NMS displacement, rat brain membranes, filtration; format: binding; settings: [3H]NMS 0.3 nM (0.5 nM in data analysis), 30 mM Na+/HEPES pH 7.5, 25 °C, 60 min; competitive
T1 construct: gene Chrm1; native receptors in particulate (40 000 g pellet) preparation of whole brain without cerebellum; subtype mixture not resolved
Source text: [3H]NMS displacement, rat brain membranes, filtration on muscarinic receptor (rat brain)

SMILES	IC50 [µM]
CC(CN(C)C)CN1c2ccccc2CCc2ccccc21 (stereo not drawn) [Trimipramine]	0.099
CCC(=O)O[C@]1(C(=O)SCF)[C@H](C)C[C@H]2[C@@H]3C[C@H](F)C4=CC(=O)C=C[C@]4(C)[C@@]3(F)[C@@H](O)C[C@@]21C [Fluticasone Propionate]	8
OC(CCN1CCCCC1)(c1ccccc1)C1CC2C=CC1C2 (stereo not drawn) [Biperiden]	0.0105
OC(CCCN1CCCCC1)(c1ccccc1)c1ccccc1 [Difenidol]	0.325
CC(C)(C)NCC(O)c1ccccc1Cl (stereo not drawn) [Tulobuterol]	71.9
CN(C)CCCN1c2ccccc2CCc2ccccc21 [Imipramine]	0.279
Cc1cncc(CN2CCC(=C3c4ccc(Cl)cc4CCc4cccnc43)CC2)c1 [Rupatadine]	1.51
O=C(Nc1ccc(C[C@@H]2CC[C@H]([C@H](O)c3ccccc3)N2)cc1)[C@@H]1CCc2nccc(=O)n21 [Vibegron]	5.32
COc1ccc(CC(C)NCC(O)c2ccc(O)c(NC=O)c2)cc1 (stereo not drawn) [Formoterol]	14.3
C[C@@H]1C[C@H]2[C@@H]3C[C@H](F)C4=CC(=O)C=C[C@]4(C)[C@@]3(F)[C@@H](O)C[C@]2(C)[C@@]1(OC(=O)c1ccco1)C(=O)SCF [Fluticasone furoate]	18.2
COc1cc(O)c(C(=O)Nc2nc(C(=O)NCCN(C(C)C)C(C)C)cs2)cc1OC [Acotiamide]	44.2
COc1cc2nc(N3CCN(C(=O)C4COc5ccccc5O4)CC3)nc(N)c2cc1OC (stereo not drawn) [Doxazosin]	13.2
Cc1c(-c2ccccc2)oc2c(C(=O)OCCN3CCCCC3)cccc2c1=O [Flavoxate]	11.5
CNCc1cc(-c2ccccc2F)n(S(=O)(=O)c2cccnc2)c1 [Vonoprazan]	1.7
CNCC[C@H](Oc1cccc2ccccc12)c1cccs1 [Duloxetine]	19.3
O=C(O[C@H]1CN2CCC1CC2)N1CCc2ccccc2[C@@H]1c1ccccc1 [Solifenacin]	0.00738
CCCC[C@H](C)C[C@H](O)/C=C/[C@H]1[C@H](O)CC(=O)[C@@H]1CCCC/C=C/C(=O)O [Limaprost]	56.1
CC(C)COCC(CN(Cc1ccccc1)c1ccccc1)N1CCCC1 (stereo not drawn) [Bepridil]	20.8
OC[C@H]1O[C@@H](c2ccc(Cl)c(Cc3ccc(O[C@H]4CCOC4)cc3)c2)[C@H](O)[C@@H](O)[C@@H]1O [Empagliflozin]	22.1
OC(CCN1CCCCC1)(c1ccccc1)c1ccccc1 [Pridinol]	0.0536
CCc1ccc(C(=O)C(C)CN2CCCCC2)cc1 (stereo not drawn) [Eperisone]	0.902
CN(CCCCCCN(C)C(=O)Oc1ccc[n+](C)c1)C(=O)Oc1ccc[n+](C)c1 [Distigmine]	1.7
CN(C)CCOC1=Cc2ccccc2Sc2ccc(Cl)cc21 [Zotepine]	0.554

SMILES	IC50 [µM]
CN1CCC2=C(C1)c1ccccc1Cc1ccccc12 [Setiptiline]	1.97
CCCOC(C(=O)OC1CCN(C)CC1)(c1ccccc1)c1ccccc1 [Propiverine]	0.35
Cn1c(=O)cc(N2CCC[C@@H](N)C2)n(Cc2ccccc2C#N)c1=O [Alogliptin]	81.5
CC#CCn1c(N2CCC[C@@H](N)C2)nc2c1c(=O)n(Cc1nc(C)c3ccccc3n1)c(=O)n2C [Linagliptin]	2.89
C[N+]1(C)[C@@H]2C[C@@H](OC(=O)C(O)(c3cccs3)c3cccs3)C[C@H]1[C@@H]1O[C@@H]12 [Tiotropium]	0.00039
OC(c1ccccc1)(c1ccccc1)C12CC[N+](CCOCc3ccccc3)(CC1)CC2 [Umeclidinium]	0.00015
Clc1ccc(C(OCCN2CCCCC2)c2ccccc2)cc1 (stereo not drawn) [Cloperastine]	0.0003
OCc1cc(C(O)CNCCCCCCOCCCCc2ccccc2)ccc1O (stereo not drawn) [Salmeterol]	6.1
Nc1nc(CC(=O)Nc2ccc(CCNC[C@H](O)c3ccccc3)cc2)cs1 [Mirabegron]	6.62
CN(C)CCC=C1c2ccccc2CCc2ccccc21 [Amitriptyline]	0.0293
CN(C)CCC(c1ccc(Cl)cc1)c1ccccn1 (stereo not drawn) [Chlorpheniramine]	5.1
OCc1cc([C@@H](O)CNCCCCCCOCCOCc2c(Cl)cccc2Cl)ccc1O [Vilanterol]	6.1
CNCCC=C1c2ccccc2CCc2ccccc21 [Nortriptyline]	0.168
CCc1cc2c(cc1CC)CC(NC[C@H](O)c1ccc(O)c3[nH]c(=O)ccc13)C2 [Indacaterol]	39.3
CCC(NC(C)C)C(O)c1ccc(O)c2[nH]c(=O)ccc12 (stereo not drawn) [Procaterol]	3.9
Clc1ccccc1CN1CCc2sccc2C1 [Ticlopidine]	18
CC(C)N(CCC(C(N)=O)(c1ccccc1)c1ccccn1)C(C)C (stereo not drawn) [Disopyramide]	5.99
C[N+]1(C)CCCC(OC(=O)C(O)(c2ccccc2)c2ccccc2)C1 (stereo not drawn) [Mepenzolate]	0.00306
CC(C)C(=O)Oc1ccc(CO)cc1[C@H](CCN(C(C)C)C(C)C)c1ccccc1 [Fesoterodine]	0.012
CN(C)CCCN1c2ccccc2Sc2ccc(Cl)cc21 [Chlorpromazine]	0.376
COCCCOc1ccnc(C[S+]([O-])c2nc3ccccc3[nH]2)c1C (stereo not drawn) [Rabeprazole]	18.1
NC1=NCC2c3ccccc3Cc3ccccc3N12 (stereo not drawn) [Epinastine]	26.3
